15 molecules from patent US20250340560A1, “SUBSTITUTED PYRAZOLO[1,5-a]PYRIMIDINES AS BRUTON'S TYROSINE KINASE MODULATORS” (BEIGENE SWITZERLAND GMBH, priority 2013, published 2025) can be followed below.

SMILES strings stand for the structures. Structures can show the parent of a compound that is named as a salt. Where two headings read alike, the source gives them in different places. Where only a bound is given, the exact number is not on record here.

In general, IC50 refers to the concentration at which inhibition is half-maximal.

One experiment deals with Recombinant Btk (Homo sapiens (Human), UniProt Q06187). Kind of experiment: BTK kinase assay (TR-FRET). Conditions: 1 hour pre-incubation, ATP at Km. For orientation: In TR-FRET formats the signal depends on donor and acceptor labels being close together.
Recombinant Btk, sequence (Q06187 whole entry): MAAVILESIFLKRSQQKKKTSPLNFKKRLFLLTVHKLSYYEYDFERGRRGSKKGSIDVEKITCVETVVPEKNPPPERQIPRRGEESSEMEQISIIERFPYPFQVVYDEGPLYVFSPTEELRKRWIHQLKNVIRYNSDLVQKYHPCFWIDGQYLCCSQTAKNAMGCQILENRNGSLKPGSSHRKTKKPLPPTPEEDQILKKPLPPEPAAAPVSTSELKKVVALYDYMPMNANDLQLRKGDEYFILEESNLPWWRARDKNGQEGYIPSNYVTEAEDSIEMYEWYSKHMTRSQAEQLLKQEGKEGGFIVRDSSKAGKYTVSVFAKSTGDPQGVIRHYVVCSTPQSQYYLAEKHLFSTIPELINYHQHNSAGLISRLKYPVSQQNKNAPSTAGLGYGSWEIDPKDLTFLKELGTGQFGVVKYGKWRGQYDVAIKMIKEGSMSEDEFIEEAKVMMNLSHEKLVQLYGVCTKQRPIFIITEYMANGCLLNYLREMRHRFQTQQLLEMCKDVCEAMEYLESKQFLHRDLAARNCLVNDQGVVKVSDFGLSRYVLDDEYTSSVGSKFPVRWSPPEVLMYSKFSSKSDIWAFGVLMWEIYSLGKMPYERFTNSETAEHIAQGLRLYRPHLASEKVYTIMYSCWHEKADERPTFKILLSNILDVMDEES
In experiment [1] the target is phosphorylated Btk at Tyr223 in Ramos cells (Homo sapiens (Human), UniProt Q06187). The experiment in a line: BTK pY223 cellular assay (HTRF) in Ramos cells. The experiment is classed as cell-based. Conditions: 1 hour compound incubation, pervanadate or Na3VO4 stimulation.
phosphorylated Btk at Tyr223 in Ramos cells, sequence (Q06187 whole entry): as above
Method: Btk pY223 cellular assay is a HTRF based assay intended to determine the endogenous levels of phosphorylated Btk at Tyr223.
Briefly, Ramos cells were serum starved in 0.5% FBS-containing RPMI1640 for 2 hours. Following starvation, the cells were incubated with compounds to be detected at various concentrations in a CO2 incubator for 1 hour. After incubation, cells were stimulated with 1 mM pervanadate (PV) or Na3VO4 (OV) for 20 min. Then, the cells were spinned down and lysed with 1× lysis buffer at RT for 10 min (4× lysis buffer supplied in the kit). During the incubation, 1× antibody mix was prepared by diluting anti-Btk-d2 and anti-pBtk-K in detection buffer (supplied in the kit). […] After that, 18 ul of cell lysate was transferred to the assay plate pre-loaded with antibody solution. After mixing gently and spinning briefly, the plate was sealed up and kept in dark at RT for 18 hours. […] IC50 values were calculated with GraphPad Prism software using the sigmoidal dose-response function.

For the molecule `C=CC(=O)Nc1ccccc1C1CCNc2c(C(N)=O)c(-c3ccc(OCc4ccccc4)cc3)nn21` (single isomer, unassigned) [Compound 10a], the IC50 amounted to 0.51 nM on Recombinant Btk (IC50 (nM) Btk) and 2.2 nM in experiment [1].

On to `C=CC(=O)N1CC[C@@H]2C(CNc3c(C(N)=O)c(-c4ccc(Oc5ccccc5)cc4)nn32)C1` (single isomer, unassigned) [Compound 30a], for which the IC50 on Recombinant Btk (read-out: IC50 (nM) Btk) was 0.66 nM; in experiment [1] it was 5.6 nM.

As for `C=CC(=O)N1CCc2[nH]c3c(C(N)=O)c(-c4ccc(OCC5CC5)cc4)nn3c2C1` [Compound 127, 7-acryloyl-2-(4-(cyclopropylmethoxy)phenyl)-5,6,7,8-tetrahydro-4H-pyrazolo[5′,1′:2,3]imidazo[4,5-c]pyridine-3-carboxamide], the half-maximal inhibitory concentration (IC50) at Recombinant Btk (read-out: IC50 (nM) Btk) was found to be 300 nM.

As for `NC(=O)c1c(-c2ccc(Oc3ccccc3)cc2)nn2c1[nH]c1ccc([N+](=O)[O-])cc12` [Compound 65, 7-Nitro-2-(4-phenoxyphenyl)-4H-benzo[4,5]imidazo[1,2-b]pyrazole-3-carboxamide], the IC50 at Recombinant Btk (read-out: IC50 (nM) Btk) came to 320 nM.

Consider `C=CC(=O)N1CC(C2CCNc3c(C(N)=O)c(-c4ccc(Oc5ccc(Cl)cc5)cc4)nn32)C1` (centres unmarked) [Compound 106, 7-(1-acryloylazetidin-3-yl)-2-(4-(4-chlorophenoxy)phenyl)-4,5,6,7-tetrahydropyrazolo[1,5-a]pyrimidine-3-carboxamide], for which the IC50 on Recombinant Btk (read-out: IC50 (nM) Btk) worked out at 1.4 nM.

Regarding `C=CC(=O)Nc1ccccc1C1CCNc2c(C(N)=O)c(-c3ccc(Cl)c(C(F)(F)F)c3)nn21` (centres unmarked) [Compound 163, 7-(2-Acrylamidophenyl)-2-(4-chloro-3-(trifluoromethyl)phenyl)-4,5,6,7-tetrahydropyrazolo[1,5-a]pyrimidine-3-carboxamide], on Recombinant Btk (read-out: IC50 (nM) Btk), the 50% inhibitory concentration (IC50) stood at 7.3 nM.

Turning to `C=CC(=O)N1CCC2(CCNc3c(C(N)=O)c(-c4ccc(Oc5ccccc5)cc4)nn32)CC1` [Compound 43, 1-Acryloyl-2′-(4-phenoxyphenyl)-5′,6′-dihydro-4′H-spiro[piperidine-4,7′-pyrazolo[1,5-a]pyrimidine]-3′-carboxamide], the IC50 at Recombinant Btk (read-out: IC50 (nM) Btk) was determined as 3 nM.

In the case of `C=CC(=O)Nc1ccccc1C1CCNc2c(C(N)=O)c(-c3ccc(OC4CCOCC4)cc3)nn21` (centres unmarked) [Compound 24, 7-(2-Acrylamidophenyl)-2-(4-(tetrahydro-2H-pyran-4-yloxy)phenyl)-4,5,6,7-tetrahydropyrazolo[1,5-a]pyrimidine-3-carboxamide], the half-maximal inhibitory concentration (IC50) at Recombinant Btk (read-out: IC50 (nM) Btk) amounted to 39 nM.

Regarding `C=CC(=O)Nc1ccc2c(c1)-n1nc(-c3ccc(Oc4ccccc4)cc3)c(C(N)=O)c1NC2` [Compound 69, 8-Acrylamido-2-(4-phenoxyphenyl)-4,5-dihydropyrazolo[1,5-a]quinazoline-3-carboxamide], the IC50 at Recombinant Btk (read-out: IC50 (nM) Btk) was 7.8 nM.

Turning to `NC(=O)c1c(-c2ccc(Oc3ccccc3)cc2)nn2cc(-c3cccc(N)c3)[nH]c12` [Compound 47, 2-(3-Aminophenyl)-6-(4-phenoxyphenyl)-1H-imidazo[1,2-b]pyrazole-7-carboxamide], the IC50 at Recombinant Btk (read-out: IC50 (nM) Btk) was found to be 110 nM.

Regarding `NC(=O)c1c(-c2ccc(OC3CCCC3)cc2)nn2c1NCCC2c1ccccc1N` (centres unmarked) [Compound 17, 7-(2-Aminophenyl)-2-(4-(cyclopentyloxy)phenyl)-4,5,6,7-tetrahydro pyrazolo[1,5-a]pyrimidine-3-carboxamide], the IC50 on Recombinant Btk (read-out: IC50 (nM) Btk) is > 10000 nM.

With `C=CC(=O)NC1CNc2c(C(N)=O)c(-c3ccc(Oc4ccccc4)cc3)nn2C1` (centres unmarked) [Compound 85, 6-Acrylamido-2-(4-phenoxyphenyl)-4,5,6,7-tetrahydropyrazolo[1,5-a]pyrimidine-3-carboxamide], the IC50 on Recombinant Btk (read-out: IC50 (nM) Btk) came out at 32 nM.

As to `C=CC(=O)N1CCC(C2CCNc3c(C(N)=O)c(-c4ccccc4)nn32)CC1` (centres unmarked) [Compound 144, 7-(1-acryloylpiperidin-4-yl)-2-phenyl-4,5,6,7-tetrahydropyrazolo[1,5-a]pyrimidine-3-carboxamide trifluoroacetate], the IC50 on Recombinant Btk (read-out: IC50 (nM) Btk) worked out at 140 nM.

Turning to `NC(=O)c1c(-c2ccc(Oc3ccccc3)cc2)nn2c1NCCC21CCNCC1` [Compound 42, 2′-(4-Phenoxyphenyl)-5′,6′-dihydro-4′H-spiro[piperidine-4,7′-pyrazolo [1,5-a]pyrimidine]-3′-carboxamide trifluoroacetate], at Recombinant Btk (read-out: IC50 (nM) Btk), the half-inhibitory concentration (IC50) stood at 330 nM.

As for `CC#CC(=O)N1CCC(C2CCNc3c(C(N)=O)c(-c4ccc(Oc5ccc(F)cc5)cc4)nn32)CC1` (centres unmarked) [Compound 194, 7-(1-(But-2-ynoyl)piperidin-4-yl)-2-(4-(4-fluorophenoxy)phenyl)-4,5,6,7-tetrahydropyrazolo[1,5-a]pyrimidine-3-carboxamide], the concentration for half-maximal inhibition (IC50) on Recombinant Btk (read-out: IC50 (nM) Btk) is 45 nM.
